The text below walks through data of US20140148498A1, “METHODS AND COMPOSITIONS FOR THE TREATMENT OF MARFAN SYNDROME AND ASSOCIATED DISORDERS” (THE JOHNS HOPKINS UNIVERSITY, priority 2011, published 2014).

This test relates to ERK1/2. The test is described as follows: Western blot of proximal ascending aorta: ERK1/2 activation (Examples 6-8). Format: in vivo, mice. The note with it: Fbn1^C1039G/+ mice, compared with placebo-treated littermates, FIG. 16B. From the text: All mice were cared for under strict compliance with the Animal Care and Use Committee of the Johns Hopkins University School of Medicine. The Smad4 haploinsufficient mice were a generous gift from Dr. Chuxia Deng (NIH/NIDDK, Bethesda). The Fbn1^C1039G/+ line was maintained on a C57BL/6 background, allowing for valid comparisons. In order to further accommodate the potential for temporal- or background-specific variation in genetic or pharmacological manipulation experiments, all comparisons were made between contemporary littermates. Mice were checked daily for death and all mice found dead were immediately necropsied to assess for evidence of aortic dissection. Mice were killed with an inhalation overdose of halothane (Sigma-Aldrich, St. Louis). Mice underwent immediate laparotomy, descending abdominal aortic transection, and PBS (pH 7.4) infusion through the left ventricle to flush out the blood. For Western blot analysis, the proximal ascending aorta (root to right brachiocephalic trunk) was removed, flash frozen in liquid nitrogen and stored at −80° C. Following PBS infusion, mice analyzed for aortic histology had latex injected under low pressure into the left ventricular apex until it was visible in the descending abdominal aorta. The mice were then fixed for 24 hours in 10% buffered formalin, after which the heart and aorta were removed and stored in 70% ethanol.
Mouse monoclonal TGFβNAb (1d11; R&D Systems, Minneapolis) was reconstituted in PBS and administered via intraperitoneal injection 3 times a week at a dose of 5 mg/kg. Treatment was initiated at 1 month of age and continued for 2 months. IgG (Zymed Laboratories Inc, San Francisco) was reconstituted in PBS, and administered at a dose of 10 mg/kg as a control. […]
Protein was extracted using the reagents and protocol from a Total Protein Extraction Kit, in conjunction with a Protein Phosphatase Inhibitor Cocktail (Millipore, MA). […] Equal protein loading of samples was determined by a protein assay (BioRad, CA) and confirmed by probing with antibodies against β-Actin or GAPDH (Sigma, Mo.). […]
(In general: Immunoblotting shows a protein as a band on a membrane.)

As for `CCCCc1nc(Cl)c(CO)n1Cc1ccc(-c2ccccc2-c2nn[nH]n2)cc1` [losartan], the ERK1/2 activation entry is on record as “significant reduction in ERK1/2 activation”.
